{"source": "ChEMBL document CHEMBL5505957", "about": "(Eur J Med Chem, 2024)", "system": "Influenza A virus", "assay": "microbe, parasite or virus in culture", "conditions": "A/Puerto Rico/8/34, MDCK, 48 h", "data": [{"smiles": "Cc1[nH]c(=O)[nH]c(=O)c1CCCc1cn(C2OC(CO)C(O)C2O)nn1", "note": "(stereo unspecified)", "values": [{"measurement": "IC50", "value": 68, "unit": "µM"}]}]}
